# Where “and” joins values, the source holds several entries; their conditions need not be identical. Equal entries are not always repeated.
# Tests used:
# [1] = target: Norepinephrine transporter (Rattus norvegicus, UniProt Q9JIA2)
# [2] = target: Sodium-dependent dopamine transporter (Rattus norvegicus, UniProt P23977)
# [3] = target: Sodium-dependent serotonin transporter (Rattus norvegicus, UniProt P31652)
# Sequence of Sodium-dependent serotonin transporter (P31652 whole entry): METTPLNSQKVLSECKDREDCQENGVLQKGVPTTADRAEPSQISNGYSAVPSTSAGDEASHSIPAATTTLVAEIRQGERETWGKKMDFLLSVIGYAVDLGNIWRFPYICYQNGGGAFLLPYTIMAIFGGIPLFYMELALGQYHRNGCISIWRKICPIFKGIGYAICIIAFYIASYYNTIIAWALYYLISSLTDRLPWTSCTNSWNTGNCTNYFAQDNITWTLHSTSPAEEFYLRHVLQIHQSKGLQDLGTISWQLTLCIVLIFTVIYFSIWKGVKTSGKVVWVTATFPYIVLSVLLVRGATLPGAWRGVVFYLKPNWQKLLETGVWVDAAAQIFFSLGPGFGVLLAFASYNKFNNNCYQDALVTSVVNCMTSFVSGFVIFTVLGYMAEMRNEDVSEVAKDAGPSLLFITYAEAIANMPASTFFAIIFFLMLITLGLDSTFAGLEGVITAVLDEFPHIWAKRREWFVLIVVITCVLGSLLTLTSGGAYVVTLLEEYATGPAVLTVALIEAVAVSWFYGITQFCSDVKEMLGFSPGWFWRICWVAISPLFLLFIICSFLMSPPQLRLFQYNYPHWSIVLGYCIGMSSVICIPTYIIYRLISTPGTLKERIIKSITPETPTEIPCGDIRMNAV
# Sequence of Sodium-dependent dopamine transporter (P23977 whole entry): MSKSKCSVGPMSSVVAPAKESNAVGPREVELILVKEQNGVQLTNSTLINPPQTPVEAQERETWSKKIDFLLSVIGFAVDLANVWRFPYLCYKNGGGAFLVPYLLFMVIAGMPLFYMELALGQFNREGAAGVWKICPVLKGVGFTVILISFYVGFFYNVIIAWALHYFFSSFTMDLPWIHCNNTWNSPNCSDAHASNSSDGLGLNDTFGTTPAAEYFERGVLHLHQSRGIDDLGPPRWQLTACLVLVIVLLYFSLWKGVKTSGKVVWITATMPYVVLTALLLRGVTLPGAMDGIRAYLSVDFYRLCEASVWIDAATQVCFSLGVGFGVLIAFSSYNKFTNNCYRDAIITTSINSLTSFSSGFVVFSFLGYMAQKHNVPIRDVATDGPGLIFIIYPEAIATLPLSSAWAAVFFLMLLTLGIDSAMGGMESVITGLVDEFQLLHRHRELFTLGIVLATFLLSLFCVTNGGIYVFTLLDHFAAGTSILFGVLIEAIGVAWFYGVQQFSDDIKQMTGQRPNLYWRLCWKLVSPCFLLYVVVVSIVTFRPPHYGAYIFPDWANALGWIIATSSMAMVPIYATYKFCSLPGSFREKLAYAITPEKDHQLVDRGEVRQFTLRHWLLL
SMILES,Ki [1],Ki [2],Ki [3]
CN[C@@H](C)Cc1ccccc1 [METHAMPHETAMINE (+)],48 nM and 234 nM,–,–
"NCC(O)c1ccc(O)c(O)c1 (stereo not drawn) [Noradrenaline,(+)]",63.9 nM,357 nM,> 10000 nM
CN1[C@H]2CC[C@@H]1[C@@H](C(=O)N1CCCC1)[C@@H](c1ccc(I)cc1)C2 [RTI-229],19.5 nM,–,362 nM
NCCc1ccc(O)c(O)c1,40.3 nM,–,6490 nM
"CN[C@@H](C)Cc1ccc2c(c1)OCO2 [DL-(3,4-Methylenedioxy)methamphetamine]",462 nM,1570 nM,238 nM
NC1=NCC(c2ccccc2)O1 (stereo not drawn) [CAS_2207-50-3],54.5 nM,216 nM,1240 nM
CC(C)(N)Cc1ccccc1 [2-methyl-1-phenylpropan-2-amine],244 nM,1580 nM,> 10000 nM
"COC(=O)C1C2CC[C@H](C[C@@H]1c1ccc(N)cc1)N2C (stereo partly drawn) [(3S,8R)-3-(4-Amino-phenyl)-8-methyl-8-aza-bicyclo[3.2.1]octane-2-carboxylic acid methyl ester]",–,2.15 nM,–
"COC(=O)[C@H]1[C@@H](c2ccc(I)cc2)C[C@@H]2CC[C@H]1N2C [RTI 55, (exo,exo)-isomer, Iodine (125) labeled]",5.89 nM,0.83 nM,1 nM
"CN[C@@H](C)[C@H](O)c1ccccc1 [Ephedrine,(-)]",225 nM,4400 nM,> 10000 nM
CCNC(C)Cc1cccc(C(F)(F)F)c1 (stereo not drawn) [NSC_3337],–,> 10000 nM,–
O[C@]1(c2ccc(Cl)cc2)c2ccccc2C2=NCCN21 [Mazanor],2.88 nM,25.9 nM,272 nM
NCCc1c[nH]c2ccc(O)cc12 [[3H]-5-HT],3010 nM,2700 nM,–
C[C@H](N)Cc1ccccc1 [beta-aminopropylbenzene],38.9 nM,–,–
c1ccc(CCCN2CCN(CCOC(c3ccccc3)c3ccccc3)CC2)cc1 [GBR-12935],277 nM,–,–
CC(C)(N)Cc1ccc(Cl)cc1 [CAS_461-78-9],451 nM,3940 nM,338 nM
NCCc1ccc(O)cc1,72.5 nM,106 nM,1560 nM
